Data as given in patent US7097965B2 (priority 1996, dated 2006).

Tested on: mouse mastocytoma cells
Type: cell-based

**Q.** `CC(=O)N[C@@H](CSC(=O)[C@]1([C@@H](O)C(C)C)NC(=O)[C@H](C)[C@@H]1O)C(=O)O` [lactacystin] was tested. Which “lysis of the target cells by CTLs” value did it give?
**A.** Its value is “significantly decreased lysis”.
